The results in this text go back to US9267945B2, “Diagnosis of multiple sclerosis” (Yeda Research and Development Co. Ltd., priority 2008, dated 2016).

In experiment [1] the test system is IgG reactivity to PLP261-277. In words: Inhibition of RRMS serum IgG reactivity on antigen microarray by pre-incubation with free peptide. Type of experiment: binding, human. The note with it: RRMS sera 1:10 dilution, excess unbound peptide, FIG. 1C. The protocol: RRMS or healthy controls (HC) serum samples were hybridized on antigen microarrays at different concentrations and the mean IgG (FIG. 1A) and IgM (FIG. 1B) reactivity to the CNS, HSP or lipid antigens spotted on the microarrays were measured. Results are presented as mean±SEM of the IgG or IgM reactivity for CNS, HSP or lipid antigens at each dilution. *P<0.05, **P<0.01 and ***P<0.001 (two-way ANOVA) when compared to HC samples tested at the same dilution.
The chips were washed with PBS, blocked for 1 h at 37° C. with 1% BSA, and incubated for 2 hours at 37° C. with a 1:10 dilution of the test serum in blocking buffer under a coverslip in a humid environment. The arrays were then washed and incubated for 45 min at 37° C. with a 1:500 dilution mixture of goat anti-human IgG Cy3-conjugated antibody and a goat anti-human IgM conjugated to Cy5, (both purchased from Jackson ImmunoResearch, West Grove, Pa. The arrays were scanned with a ScanArray 4000× scanner (GSI Luminomics, Billerica, Mass., USA) and the IgM and IgG results were recorded separately. The results were recorded as TIFF files.

Experiment [2] relates to T cell responses to MOG35-55. As to the kind of experiment: T cell responses to MOG35-55 in EAE mice. Type of experiment: cell-based. As to conditions: EAE mice given oxChol and AIQ. The method, then:
Further investigations were performed to determine whether the effect of oxChol on EAE was mediated by PARP.

The next experiment deals with EAE in C57BL/6 mice. As to the kind of experiment: EAE induced with MOG35-55. Type of experiment: in vivo. The protocol: EAE was induced in C57BL/6 mice with MOG35-55, and 15-ketocholestene, 15-ketocholestane and 15α-hydroxycholestene were administered at days 0, 4, 7 and 10 after EAE induction (10 μg/mice). AIQ was administered intraperitoneally (60 μg/mice) on daily basis. The course of EAE in these mice is shown as the mean EAE score+s.e.m. (MOG35-55 n=22, MOG35-55+oxChol n=24, MOG35-55+oxChol+AIQ n=18).
Spinal cords were taken on day 19 and stained with hematoxylin and eosin, luxol fast blue or silver stain to quantify the cellular infiltrate, demyelination and axonal loss, respectively. Each column represents the mean±SEM resulting from the analysis of at least 8 sections. Administration of oxChol enhanced EAE as measured clinically (FIG. 4A, P<0.0001, two-way ANOVA), and augmented inflammatory infiltrates (FIG. 4B; P<0.05, one-way ANOVA), demyelination (FIG. 4C; P<0.01, one-way ANOVA) and axonal loss (FIG. 4D; P<0.001, one-way ANOVA); these effects were inhibited by treatment with AIQ (P<0.001, one-way ANOVA).

For the compound “PLP261-277: proteolipid protein peptide 261-277, used unbound as competitor (ATYNFAVLKLMGRGTKF)”, the “reactivity to PLP261-277 on the antigen array after pre-incubation of the serum with peptide” value in experiment [1] was “inhibited”.
With `Nc1cccc2c(=O)[nH]ccc12` [AIQ, 5-Aminoisoquinolinone], the “T cell responses to MOG35-55 as measured by cytokines (IFN-γ and IL-17) or proliferation” value in experiment [2] is listed as “did not affect”. For the same compound, in the experiment on EAE in C57BL/6 mice (day 19, hematoxylin and eosin, FIG. 4B), the “inflammatory infiltrates in spinal cord” value was “inhibited”. In addition, the “demyelination in spinal cord” value in the experiment with EAE in C57BL/6 mice (day 19, luxol fast blue, FIG. 4C) is reported as “inhibited”. Also, the “axonal loss in spinal cord” value with EAE in C57BL/6 mice (day 19, silver stain, FIG. 4D) is recorded as “inhibited”. In the experiment on EAE in C57BL/6 mice (oxChol 10 μg/mice days 0, 4, 7, 10, AIQ 60 μg/mice i.p. daily, FIG. 4A, P<0.0001), the “EAE measured clinically (mean EAE score)” value is recorded as “abrogated the worsening of EAE”.
